# Key:
# [1] = Spot-free drying: water displacement from glass and stainless steel coupons; conditions: 0.2% by weight C4F9OC2F4OCF2CONHC2H4OH dissolved in the ether, 45° C., ultrasonic agitation
# Protocol: A sample of the compound was also evaluated for use in spot-free drying applications such as taught in U.S. Pat. No. 5,125,978 (Flynn et al.). A water displacement composition was prepared by dissolving 0.2% by weight of C4F9OC2F4OCF2CONHC2H4OH in C4F9—O—C2F4H. The solution was heated to 45° C. in an ultrasonic bath. Using the procedure described in U.S. Pat. No. 5,125,978, test coupons of glass and stainless steel were wetted with water and subsequently immersed into this solution with ultrasonic agitation. All water was displaced within 60 seconds.
# [2] = Rinse agent in co-solvent cleaning of oil-contaminated aluminum coupon; conditions: 50° C., about 60 seconds methyl decanoate then about 60 seconds rinse agent, aluminum coupon with light hydrocarbon oil
# Protocol: A sample of this compound was also evaluated for use as a rinse agent in co-solvent cleaning applications. (Such cleaning applications are taught, for example, in International Patent Publication No. WO 92/22678 (Petroferm Inc.). Organic esters such as methyl decanoate have found utility as solvating agents in two-phase cleaning applications using perfluorohexane as the carrier liquid and rinse agent.) Methyl decanoate and C4F9OC2F4H were placed in separate containers and heated to 50° C. in an ultrasonic bath. A 50 mm×25 mm×1.5 mm aluminum coupon was contaminated with 0.0831 g of a light hydrocarbon oil. The contaminated coupon was first immersed in the methyl decanoate for about 60 seconds and then immersed in the C4F9OC2F4H for about 60 seconds. The C4F9OC2F4H rinsed 100 percent (as determined by weight difference) of the oil and the methyl decanoate from the coupon.
# [3] = Fire extinguishing agent evaluation, NFPA 2001 standard, modified cup burner; conditions: cup burner modified to handle liquid compounds
# Protocol: Omega-hydrofluoroalkyl ether compounds of this invention were evaluated as fire extinguishing agents using the National Fire Protection Association 2001 Fire Protection Standard, with a cup burner modified to handle liquid compounds. The results, shown below in Table D, indicate that the compounds could be effective agents for fire extinguishing, explosion suppression, and as flammable atmosphere inerting agents.
# [4] = Solubilities of selected hydrocarbon solvents in the ether hydride (precision cleaning); type: physicochemical
# Protocol: A sample of this compound was evaluated for use in precision cleaning applications by measuring the solubilities of selected hydrocarbon solvents in the sample.
# [5] = Comparative boiling points; type: physicochemical
# Text: The unexpectedly low boiling points of compounds of the present invention render the compounds useful in processes involving temperature-sensitive substrates such as plastics. (For example, in vapor-phase cleaning, a substrate is rinsed in the condensing vapor of a boiling fluid, and in condensation heating, a substrate is heated by immersion in a boiling fluid.) In such applications, a lower-boiling fluid is preferred so as to avoid damage to the substrate. While it is known that boiling points can be reduced by selection of a compound having fewer carbon atoms, this may result in a boiling point reduction of 25° C. or more, in addition to adversely affecting other properties such as solvency.
compound,measurement,setting,value
"FC(F)C(F)(F)OC(F)(F)C(F)(F)C(F)(F)C(F)(F)F [C4F9OC2F4H, C4F9—O—C2F4H]",Time for all water to be displaced,[1],≤ 60 s
same,Oil and methyl decanoate rinsed from the coupon (by weight difference),[2],100%
same,Extinguishment concentration,[3],5.6 vol. %
same,Solubility of chloroform in the ether hydride,[4]; Chloroform,45 % by weight
same,Solubility of ethylene glycol in the ether hydride,[4]; Ethylene glycol,less than 15 % by weight
same,Solubility of hydrocarbon solvent in the ether hydride,"[4]; hexane, heptane, toluene, acetone, 2-butanone, 4-methyl-2-pentanone, ethyl acetate, methanol, ethanol, isopropanol, dimethyl formamide, trans-1,2-dichloroethylene, isopropyl ether",up to 50 % by weight
same,Solubility of light hydrocarbon oil in the ether hydride,[4]; light hydrocarbon oil,less than 0.05 % by weight
same,Solubility of o-xylene in the ether hydride,[4]; o-Xylene,19 % by weight
"FC(F)C(F)(F)C(F)(F)C(F)(F)C(F)(F)OC(F)(F)C(F)(F)C(F)(F)C(F)(F)C(F)(F)F [C5F11OC5F10H, C5F11—O—(CF2)5H]",Boiling Point,[5],150 °C
"FC(F)C(F)(F)C(F)(F)C(F)(F)OC(F)(F)C(F)(F)C(F)(F)C(F)(F)C(F)(F)C(F)(F)F [C6F13OC4F8H, C6F13—O—C4F8—H]",Boiling Point,[5],149 °C
"FC(F)C(F)(F)OC(F)(F)C(F)(F)C(F)(F)C(F)(F)C(F)(F)C(F)(F)C(F)(F)F [C7F15OC2F4H, C7F15—O—C2F4H]",Boiling Point,[5],131 °C
"FC(F)C(F)(F)C(F)(F)C(F)(F)C(F)(F)C(F)(F)C(F)(F)C(F)(F)C(F)(F)F [C8F17CF2H, reference compound]",Boiling Point,[5],136 °C
"FC(F)C(F)(F)OC(F)(F)C(F)(F)C(F)(F)C(F)(F)C(F)(F)C(F)(F)C(F)(F)C(F)(F)F [C8F17OC2F4H, C8F17—O—C2F4H]",Boiling Point,[5],148 °C
"FC(F)OC(F)(F)C(F)(F)C(F)(F)C(F)(F)C(F)(F)C(F)(F)C(F)(F)C(F)(F)F [C8F17OCF2H, C8F17—O—CF2H]",Boiling Point,[5],139 °C
"FC(F)C(F)(F)C(F)(F)C(F)(F)C(F)(F)C(F)(F)C(F)(F)C(F)(F)C(F)(F)C(F)(F)F [C9F19CF2H, reference compound]",Boiling Point,[5],154 °C
FC(F)OC(F)(F)C(F)(F)C(F)(F)C(F)(F)C(F)(F)C(F)(F)C(F)(F)C(F)(F)C(F)(F)F [C9F19OCF2H],Boiling Point,[5],155 °C
FC(F)C(F)(F)C(F)(F)OC(F)(F)C(F)(F)C(F)F [HC3F6OC3F6H],Extinguishment concentration,[3],5.7 vol. %
"FC(F)(F)C(F)(F)C(F)(F)C(F)(F)C(F)(F)C(F)(F)F [perfluorohexane, reference compound]",Oil and methyl decanoate rinsed from the coupon (by weight difference),[2],98.5%
